pEC50: −log10 of the molar value. Starred links: 1 amine or outer side, 2 acyl side, 3 side chain; linkers in the order of their positions; H or OH if unused. Residues, ends and D or L forms follow the SMILES beside them. Groups on a side chain read outwards from the residue. *: point of attachment. C18 diacid = O=C(O)CCCCCCCCCCCCCCCCC(=O)*; γGlu = O=C(O)[C@H](CCC(=O)[*:2])N[*:1]

For data set [1], the target named is T1, human amylin receptor (hAMYR3) (Homo sapiens, UniProt O60896+P30988).
T1 construct: host or cells: BHK (Baby Hamster Kidney), Hollex-1 cell line further transfected with RAMP3
Description: Human amylin receptor (hAMYR3) in vitro potency assay, CRE-luciferase reporter in BHK cells. Format: cell-based. As to conditions: BHK hAMYR3/CRE-Luc cells, 3 hours incubation, assay buffer with 1% ovalbumin. A digest of the protocol: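 Luminescence from a CRE-driven luciferase reporter reflects cAMP-mediated receptor activation. Peptides were serially diluted (7 concentrations, 7-fold steps, typically starting near 10 nM) in buffer with 1% ovalbumin and applied for 3 h at 37 °C to BHK cells co-expressing calcitonin receptor (a) and RAMP3.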
(In general: A reporter such as luciferase makes a cellular process visible.)

Data set [2] can be described thus: Oral pharmacokinetic profiles in Beagle dogs (SNAC tablets). The data set is classed as in vivo. As to conditions: oral tablet: 3 mg compound, 300 mg SNAC, 7.7 mg magnesium stearate; for half-life: male, dog, plasma, read-out: T½ (converted). The method, then: To be able to evaluate oral exposure following tablet dosing, tablet compositions comprising the test substance and SNAC (sodium N-(8-(2-hydroxybenzoyl)amino)caprylate) were prepared by mixing test substance with roller compacted SNAC and magnesium stearate as, e.g., described in WO 2019/149880.
This assay was performed to measure the oral bioavailability of a compound. The assay determined the exposure of test compound following oral administration in Beagle dogs as described by relevant pharmacokinetic parameters and plasma concentration curves.
Preparation of tablets for oral administration: tablets containing test compound used for the assay described herein were immediate release SNAC-based tablets. The test compound was spray-dried as neutral sodium salt (pH 7-8). Dry granulation was carried out by roller compaction on a Gerteis MINI-PACTOR. Tablets containing 3 mg test compound, 300 mg sodium N-(8-(2-hydroxybenzoyl)amino)caprylate (SNAC) and 7.7 mg magnesium stearate were produced on at Kilian Style One using 7.2×12 mm punches.
Determination of the absorption following oral administration: eight (8) male Beagle dogs, 1 to 8 years of age and weighing approximately 10-15 kg at the start of the studies, were used. The dogs were group-housed in pens (12 hours light:12 hours dark), and fed individually and restrictedly once daily with Royal Canin Medium Adult dog (Royal Canin Products, China Branch, or Brogaarden A/S, Denmark). Exercise and group social were permitted daily, whenever possible. The dogs were used for repeated pharmacokinetic studies with a suitable wash-out period between successive dosing. An appropriate acclimatisation period was given prior to initiation of the first pharmacokinetic study. All handling, dosing and blood sampling of the animals were performed by trained and skilled staff. Before the studies the dogs were fasted overnight and from 0 to 4 h after dosing. Besides, the dogs were restricted to water 1 hour before dosing until 4 hours after dosing, but otherwise had ad libitum access to water during the whole period.
Tablets containing the test compound were administered in the following manner: 10 min prior to tablet administration the dogs were dosed subcutaneously with approximately 3.2 nmol/kg of glucagon. The tablets were placed in the back of the mouth of the dog to prevent chewing. The mouth was then closed, and 10 mL of tap water was given by a syringe to facilitate swallowing of the tablet. Blood was sampled at predefined time points for up till 288 hours after dosing to adequately cover the full plasma concentration-time absorption profile of the compound. For each blood sampling time point approximately 1.2 mL of whole blood was collected in a 1.5 mL EDTA coated tube, and the tube was gently turned to allowing mixing of the sample with the EDTA. Then, the blood samples were kept on ice until centrifugation (4 min, 4° C., 4000 rpm). Plasma was pipetted into Micronic tubes on dry ice and kept at −20° C. until analysis. Blood samples were taken as appropriate, for example from a venflon in the cephalic vein in the front leg for the first 2 hours and then with syringe from the jugular vein for the rest of the time points (the first few drops were allowed to drain from the venflon to avoid heparin saline from the venflon in the sample).
Bioanalysis was carried out as follows: plasma concentrations of test compound were assayed by plasma protein precipitation and analysed by liquid chromatography-mass spectrometry (LC-MS). Calibrators were prepared by spiking blank dog plasma with analytes to reach the final concentrations in the range typically from 0.5 to 200 nM. Calibrators, plasma blanks or study samples were prepared for LC-MS by protein precipitation by adding 3 volumes of ethanol followed by centrifugation at 4000 rpm at 4° C. for 1 h. The supernatant was diluted with 2 volumes of Milli-Q water containing 0.1% formic acid before injection on the LC-MS system. […]

T1 sequence (P30988 25-474): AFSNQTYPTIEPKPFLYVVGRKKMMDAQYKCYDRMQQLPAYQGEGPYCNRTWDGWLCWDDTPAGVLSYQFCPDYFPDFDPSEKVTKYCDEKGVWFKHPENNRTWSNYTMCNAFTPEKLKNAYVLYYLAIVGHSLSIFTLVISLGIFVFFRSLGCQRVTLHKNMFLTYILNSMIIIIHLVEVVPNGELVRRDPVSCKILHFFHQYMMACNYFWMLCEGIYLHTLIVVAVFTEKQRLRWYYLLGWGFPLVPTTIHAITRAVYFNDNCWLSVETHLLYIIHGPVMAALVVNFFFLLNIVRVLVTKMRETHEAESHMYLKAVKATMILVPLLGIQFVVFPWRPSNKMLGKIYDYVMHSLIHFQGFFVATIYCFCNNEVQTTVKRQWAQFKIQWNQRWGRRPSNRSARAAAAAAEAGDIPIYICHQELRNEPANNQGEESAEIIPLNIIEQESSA
T1 sequence (O60896 24-148): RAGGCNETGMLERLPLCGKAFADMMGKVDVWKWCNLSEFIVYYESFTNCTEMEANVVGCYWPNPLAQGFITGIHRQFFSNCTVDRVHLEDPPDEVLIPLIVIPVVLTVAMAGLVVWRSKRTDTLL

What is called pEC50 is the negative decadic logarithm of the EC50, by convention in mol/L. As for `CC[C@H](C)[C@H](NC(=O)[C@H](CCCCNC(=O)CC[C@H](NC(=O)CCCCCCCCCCCCCCCCC(=O)O)C(=O)O)NC(=O)CNC(=O)[C@H](Cc1ccccc1)NC(=O)[C@H](CC(N)=O)NC(=O)[C@H](CC(=O)O)NC(=O)[C@H](CO)NC(=O)[C@H](CO)NC(=O)[C@H](Cc1c[nH]cn1)NC(=O)[C@H](Cc1c[nH]cn1)NC(=O)[C@H](CC(C)C)NC(=O)[C@H](Cc1ccccc1)NC(=O)[C@H](CCC(=O)O)NC(=O)[C@H](C)NC(=O)[C@H](CC(C)C)NC(=O)[C@H](CCCNC(=N)N)NC(=O)[C@H](C)NC(=O)[C@@H](NC(=O)[C@H](CCC(N)=O)NC(=O)[C@H](C)NC(=O)[C@@H](NC(=O)[C@H](CO)NC(=O)[C@H](CC(C)C)NC(=O)[C@H](Cc1c[nH]cn1)NC(=O)[C@H](CO)NC(=O)[C@H](C)NC(C)=O)[C@@H](C)O)[C@@H](C)O)C(=O)N[C@@H](CC(C)C)C(=O)N1CCC[C@H]1C(=O)N1CCC[C@H]1C(=O)N[C@H](C(=O)N[C@@H](CC(=O)O)C(=O)N[C@H](C(=O)NCC(=O)N[C@@H](CO)C(=O)N[C@@H](CC(N)=O)C(=O)N[C@H](C(=O)N1CCC[C@H]1C(N)=O)[C@@H](C)O)C(C)C)[C@@H](C)O` [Compound 41, N^1-acetyl,N{Epsilon-25}-[(4S)-4-carboxy-4-(17-carboxyheptadecanoylamino)butanoyl]-[Ala1,Ser2,His3,Leu4,Ser5,Ala7,Gln8,Ala10,Glu14,His17,Asp21,Lys25,Pro28,Pro29,Asp31,Pro37]-human amylin] (Ac-ASHLSTAQTARLAEFLHHSSDNFGK([γGlu-C18 diacid])ILPPTDVGSNTP-NH2), the pEC50 in data set [1] was 11.94.

Take `CC[C@H](C)[C@H](NC(=O)[C@H](C)NC(=O)CNC(=O)[C@H](Cc1ccccc1)NC(=O)[C@@H]1CCCN1C(=O)[C@H](CC(=O)O)NC(=O)[C@H](CO)NC(=O)[C@H](CO)NC(=O)[C@H](Cc1c[nH]cn1)NC(=O)[C@H](Cc1c[nH]cn1)NC(=O)[C@H](CC(C)C)NC(=O)[C@H](Cc1ccccc1)NC(=O)[C@H](CCC(=O)O)NC(=O)[C@H](C)NC(=O)[C@H](CC(C)C)NC(=O)[C@H](CCCNC(=N)N)NC(=O)[C@H](CCC(N)=O)NC(=O)[C@@H](NC(=O)[C@H](CCC(N)=O)NC(=O)[C@H](C)NC(=O)[C@@H](NC(=O)[C@H](CO)NC(=O)[C@H](CC(C)C)NC(=O)[C@H](CCC(N)=O)NC(=O)[C@H](CO)NC(=O)[C@H](C)NC(=O)CC[C@H](NC(=O)CCCCCCCCCCCCCCCCC(=O)O)C(=O)O)[C@@H](C)O)[C@@H](C)O)C(=O)N1CCC[C@H]1C(=O)N[C@@H](CO)C(=O)N[C@@H](CO)C(=O)N[C@H](C(=O)N[C@@H](CC(=O)O)C(=O)N[C@H](C(=O)NCC(=O)N1CCC[C@H]1C(=O)N[C@@H](CC(=O)O)C(=O)N[C@H](C(=O)N1CCC[C@H]1C(N)=O)[C@@H](C)O)C(C)C)[C@@H](C)O` [Compound 24] ({C18 diacid-γGlu}-ASQLSTAQTQRLAEFLHHSSDPFGAIPSSTDVGPDTP-NH2): in data set [1], the pEC50 is 11.83. Also, in data set [2], the half-life is 120 h, the “AUC/D” value came to 31.21 kg·h/L and the “Cmax/D” value came to 0.36 kg/L.

As to `CC[C@H](C)[C@H](NC(=O)[C@@H]1CCCN1C(=O)CNC(=O)[C@H](Cc1ccccc1)NC(=O)[C@H](Cc1c[nH]cn1)NC(=O)[C@H](Cc1c[nH]cn1)NC(=O)[C@H](CC(C)C)NC(=O)[C@H](Cc1ccccc1)NC(=O)[C@H](CCC(=O)O)NC(=O)[C@H](C)NC(=O)[C@H](CC(C)C)NC(=O)[C@H](CCCNC(=N)N)NC(=O)[C@H](C)NC(=O)[C@@H](NC(=O)[C@H](CCC(N)=O)NC(=O)[C@H](C)NC(=O)[C@@H](NC(=O)[C@H](CO)NC(=O)[C@H](CC(C)C)NC(=O)[C@H](Cc1c[nH]cn1)NC(=O)[C@H](CO)NC(=O)[C@H](C)NC(=O)CC[C@H](NC(=O)CC[C@H](NC(=O)CCCCCCCCCCCCCCCCC(=O)O)C(=O)O)C(=O)O)[C@@H](C)O)[C@@H](C)O)C(=O)N[C@@H](CC(C)C)C(=O)N1CCC[C@H]1C(=O)N1CCC[C@H]1C(=O)N[C@H](C(=O)N[C@@H](CC(=O)O)C(=O)N[C@H](C(=O)NCC(=O)N[C@@H](CO)C(=O)N[C@@H](CCC(=O)O)C(=O)N[C@H](C(=O)N1CCC[C@H]1C(N)=O)[C@@H](C)O)C(C)C)[C@@H](C)O` [Compound 17, N^1-[(4S)-4-carboxy-4-[[(4S)-4-carboxy-4-(17-carboxyheptadecanoylamino)butanoyl]amino]butanoyl]-[Ala1,Ser2,His3,Leu4,Ser5,Ala7,Gln8,Ala10,Glu14,His17,Pro25,Pro28,Pro29,Asp31,Glu35,Pro37],des-(19-22)-human amylin] ({C18 diacid-γGlu-γGlu}-ASHLSTAQTARLAEFLHHFGPILPPTDVGSETP-NH2), the pEC50 in data set [1] is 11.95. Moreover, in data set [2], the half-life is 94.8 h, the “AUC/D” value was 19.7 kg·h/L and the “Cmax/D” value turned out to be 0.28 kg/L.

For the molecule `CC[C@H](C)[C@H](NC(=O)[C@@H]1CCCN1C(=O)CNC(=O)[C@H](Cc1ccccc1)NC(=O)[C@H](CC(N)=O)NC(=O)[C@H](CC(=O)O)NC(=O)[C@H](CO)NC(=O)[C@H](CO)NC(=O)[C@H](Cc1c[nH]cn1)NC(=O)[C@H](Cc1c[nH]cn1)NC(=O)[C@H](CC(C)C)NC(=O)[C@H](Cc1ccccc1)NC(=O)[C@H](CCC(=O)O)NC(=O)[C@H](C)NC(=O)[C@H](CC(C)C)NC(=O)[C@H](CCCNC(=N)N)NC(=O)[C@H](C)NC(=O)[C@@H](NC(=O)[C@H](CCC(N)=O)NC(=O)[C@H](C)NC(=O)[C@@H](NC(=O)[C@H](CO)NC(=O)[C@H](CC(C)C)NC(=O)[C@H](CCC(N)=O)NC(=O)[C@H](CO)NC(=O)[C@H](C)NC(=O)CC[C@H](NC(=O)CCCCCCCCCCCCCCCCC(=O)O)C(=O)O)[C@@H](C)O)[C@@H](C)O)C(=O)N[C@@H](CC(C)C)C(=O)N1CCC[C@H]1C(=O)N1CCC[C@H]1C(=O)N[C@H](C(=O)N[C@@H](CC(=O)O)C(=O)N[C@H](C(=O)NCC(=O)N[C@@H](CO)C(=O)N[C@@H](CC(N)=O)C(=O)N[C@H](C(=O)N1CCC[C@H]1C(N)=O)[C@@H](C)O)C(C)C)[C@@H](C)O` [Compound 22, N^1-[(4S)-4-carboxy-4-(17-carboxyheptadecanoylamino)butanoyl]-[Ala1,Ser2,Gln3,Leu4,Ser5,Ala7,Gln8,Ala10,Glu14,His17,Asp21,Pro25,Pro28,Pro29,Asp31,Pro37]-human amylin] ({C18 diacid-γGlu}-ASQLSTAQTARLAEFLHHSSDNFGPILPPTDVGSNTP-NH2), the pEC50 in data set [1] is 11.91. In data set [2], the half-life was 96.6 h, the “AUC/D” value came out at 24.43 kg·h/L and the “Cmax/D” value was 0.35 kg/L.

The values above are taken from patent US12116388B2, “Amylin receptor agonists” (Novo Nordisk A/S, priority 2022, dated 2024).
